Experimental data as given in the supplement of paper PMC8633005.

Assays:
Assay in all cases: drug sensitivity score (DSS) (DSS (unitless, 0-50 scale)); higher = more sensitive (stronger viability inhibition); extreme values may be limits of the assay
Settings in all cases: 72 h; culture: 2D
[1] = test system: Bowes
Outline: (§1)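 Patient-derived melanoma cultures and melanoma cell lines were grown in 2D in 384-well plates with a 527-compound oncology library at five concentrations spanning a 10,000-fold range, with 1000–1500 cells per well for the cultures. CellTiter-Glo luminescence gave viability after 72 h at 37 °C. The drug sensitivity score is a modified area-under-curve measure derived from dose-response curves fitted in the in-house Breeze software.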

[2] = test system: FM-MEL-2
Outline: as §1

[3] = test system: FM-MEL-3
Outline: as §1

[4] = test system: FM-MEL-6
Outline: as §1

[5] = test system: SK-MEL-28
Outline: as §1

[6] = test system: SK-MEL-2
Outline: as §1

[7] = test system: WM165
Outline: as §1

[8] = test system: WM852
Outline: as §1

Cc1nn(C)c(COc2ccc(N3CCN(S(=O)(=O)N(C)C)CC3)cc2)c1-c1cccc2c(CCCOc3cccc4ccccc34)c(C(=O)O)n(CCN3CCOCC3)c12
drug sensitivity score [1]: 6.7 | drug sensitivity score [2]: 8 | drug sensitivity score [3]: 7.8 | drug sensitivity score [4]: 7.8 | drug sensitivity score [5]: 5.6 | drug sensitivity score [6]: 4.6 | drug sensitivity score [7]: 6.4 | drug sensitivity score [8]: 5.4

CN1C(=O)N[C@H](Cc2c[nH]c3c(Cl)cccc23)C1=O [Necrostatin 2]
drug sensitivity score [1]: 0 | drug sensitivity score [2]: 0 | drug sensitivity score [3]: 0 | drug sensitivity score [4]: 0 | drug sensitivity score [5]: 0 | drug sensitivity score [6]: 0 | drug sensitivity score [7]: 0 | drug sensitivity score [8]: 0

COc1cccc2c1C(=O)c1c(O)c3c(c(O)c1C2=O)C[C@@](O)(/C(CO)=N/NC(=O)CCCCCN1C(=O)C=CC1=O)C[C@@H]3O[C@H]1C[C@H](N)[C@H](O)[C@H](C)O1 [Aldoxorubicin]
drug sensitivity score [1]: 4.3 | drug sensitivity score [2]: 6.4 | drug sensitivity score [3]: 8 | drug sensitivity score [4]: 8.6 | drug sensitivity score [5]: 8.8 | drug sensitivity score [6]: 6.3 | drug sensitivity score [7]: 15.2 | drug sensitivity score [8]: 5.8

CN(C)CCCOc1ccc(-c2ccc3ncc4c(c3c2)n(C2CCOCC2)c(=O)n4C)cn1 [AZD0156]
drug sensitivity score [1]: 0 | drug sensitivity score [2]: 0.4 | drug sensitivity score [3]: 0 | drug sensitivity score [4]: 0 | drug sensitivity score [5]: 0 | drug sensitivity score [6]: 0 | drug sensitivity score [7]: 0.3 | drug sensitivity score [8]: 0

CCS(=O)(=O)N1CCN(c2ccc(Nc3ncc(C(N)=O)c(NC4CC4)n3)cc2)CC1 [Cerdulatinib]
drug sensitivity score [1]: 0.8 | drug sensitivity score [2]: 0 | drug sensitivity score [3]: 0 | drug sensitivity score [4]: 0.1 | drug sensitivity score [5]: 0 | drug sensitivity score [6]: 0 | drug sensitivity score [7]: 4.6 | drug sensitivity score [8]: 4

CO[C@H]1C[C@@H]2CC[C@@H](C)[C@@](O)(O2)C(=O)C(=O)N2CCCC[C@H]2C(=O)O[C@H]([C@H](C)C[C@@H]2CC[C@@H](OC(=O)C(C)(CO)CO)[C@H](OC)C2)CC(=O)[C@H](C)/C=C(\C)[C@@H](O)[C@@H](OC)C(=O)[C@H](C)C[C@H](C)/C=C/C=C/C=C/1C [Temsirolimus]
drug sensitivity score [1]: 0 | drug sensitivity score [2]: 4 | drug sensitivity score [3]: 0 | drug sensitivity score [4]: 4.4 | drug sensitivity score [5]: 2.5 | drug sensitivity score [6]: 0 | drug sensitivity score [7]: 6 | drug sensitivity score [8]: 0

CCN(CC)CCCC(C)Nc1ccnc2cc(Cl)ccc12 (stereo unspecified) [Chloroquine]
drug sensitivity score [1]: 7 | drug sensitivity score [2]: 9.4 | drug sensitivity score [3]: 7.3 | drug sensitivity score [4]: 9.4 | drug sensitivity score [5]: 8.3 | drug sensitivity score [6]: 7 | drug sensitivity score [7]: 9.7 | drug sensitivity score [8]: 8.6

Oc1nc(-c2ccc(C(F)(F)F)cc2)nc2c1CSCC2 [XAV-939]
drug sensitivity score [1]: 0 | drug sensitivity score [2]: 0 | drug sensitivity score [3]: 0 | drug sensitivity score [4]: 0 | drug sensitivity score [5]: 0 | drug sensitivity score [6]: 0 | drug sensitivity score [7]: 0 | drug sensitivity score [8]: 0

Cn1cc(-c2cnn3c(N)c(Br)c([C@@H]4CCCNC4)nc23)cn1 [MK-8776]
drug sensitivity score [1]: 0.9 | drug sensitivity score [2]: 0 | drug sensitivity score [3]: 1.7 | drug sensitivity score [4]: 0 | drug sensitivity score [5]: 0 | drug sensitivity score [6]: 2 | drug sensitivity score [7]: 0 | drug sensitivity score [8]: 1.9

Cc1c2oc3c(C)ccc(C(=O)N[C@@H]4C(=O)N[C@H](C(C)C)C(=O)N5CCC[C@H]5C(=O)N(C)CC(=O)N(C)[C@@H](C(C)C)C(=O)O[C@@H]4C)c3nc-2c(C(=O)N[C@@H]2C(=O)N[C@H](C(C)C)C(=O)N3CCC[C@H]3C(=O)N(C)CC(=O)N(C)[C@@H](C(C)C)C(=O)O[C@@H]2C)c(N)c1=O [Dactinomycin]
drug sensitivity score [1]: 24.4 | drug sensitivity score [2]: 16.9 | drug sensitivity score [3]: 23.5 | drug sensitivity score [4]: 25.9 | drug sensitivity score [5]: 22.2 | drug sensitivity score [6]: 30.1 | drug sensitivity score [7]: 37.9 | drug sensitivity score [8]: 24.2

Cc1noc2c1-c1ccccc1C(c1ccc(Cl)cc1)=N[C@H]2CC(N)=O [CPI-0610]
drug sensitivity score [1]: 3.8 | drug sensitivity score [2]: 5.2 | drug sensitivity score [3]: 4.8 | drug sensitivity score [4]: 0 | drug sensitivity score [5]: 2.8 | drug sensitivity score [6]: 1 | drug sensitivity score [7]: 6.6 | drug sensitivity score [8]: 0

CC1(C)C(C(=O)Nc2ccc(S(=O)(=O)c3ccc(NC(=O)C4C(C)(C)C4(C)C)cc3)cc2)C1(C)C [BRD7116]
drug sensitivity score [1]: 0.1 | drug sensitivity score [2]: 2.1 | drug sensitivity score [3]: 0.6 | drug sensitivity score [4]: 0 | drug sensitivity score [5]: 0 | drug sensitivity score [6]: 0 | drug sensitivity score [7]: 0 | drug sensitivity score [8]: 0

C[C@@H]1COCCN1c1cc(C2([S@](C)(=N)=O)CC2)nc(-c2cc[nH]c3nccc2-3)n1 [AZD6738]
drug sensitivity score [1]: 19.3 | drug sensitivity score [2]: 3.4 | drug sensitivity score [3]: 9.7 | drug sensitivity score [4]: 7 | drug sensitivity score [5]: 2.7 | drug sensitivity score [6]: 10.8 | drug sensitivity score [7]: 10.2 | drug sensitivity score [8]: 14.8

COc1nc(N)nc2c1ncn2[C@@H]1O[C@H](CO)[C@@H](O)[C@@H]1O [Nelarabine]
drug sensitivity score [1]: 0 | drug sensitivity score [2]: 0 | drug sensitivity score [3]: 0 | drug sensitivity score [4]: 0.1 | drug sensitivity score [5]: 0.1 | drug sensitivity score [6]: 0 | drug sensitivity score [7]: 0 | drug sensitivity score [8]: 0.6

CCN(CC)CCNC(=O)c1c(C)[nH]c(/C=C2\C(=O)Nc3ccc(F)cc32)c1C [Sunitinib]
drug sensitivity score [1]: 0 | drug sensitivity score [2]: 0 | drug sensitivity score [3]: 0 | drug sensitivity score [4]: 0 | drug sensitivity score [5]: 0 | drug sensitivity score [6]: 0 | drug sensitivity score [7]: 0.8 | drug sensitivity score [8]: 0

O=C1CCc2c(Oc3ccc4c(c3)[C@@H]3[C@H](O4)[C@H]3c3nc4cc(C(F)(F)F)ccc4[nH]3)ccnc2N1 [BGB-283]
drug sensitivity score [1]: 4 | drug sensitivity score [2]: 12.1 | drug sensitivity score [3]: 16.5 | drug sensitivity score [4]: 6.2 | drug sensitivity score [5]: 16.5 | drug sensitivity score [6]: 7.4 | drug sensitivity score [7]: 15.6 | drug sensitivity score [8]: 4.5

NC[C@@](O)(c1ccc(Cl)cc1)c1ccc(-c2cn[nH]c2)cc1
drug sensitivity score [1]: 0 | drug sensitivity score [2]: 1.4 | drug sensitivity score [3]: 0 | drug sensitivity score [4]: 4 | drug sensitivity score [5]: 1.7 | drug sensitivity score [6]: 0 | drug sensitivity score [7]: 2.1 | drug sensitivity score [8]: 0.6
